In publication PMC8868518, “Exploring Titanium(IV) Complexes as Potential Antimicrobial Compounds” (Antibiotics, 2022):
Read-outs that look alike come from different tables or passages of the source.

Assays:
[1] = test system: A. baumannii (ATCC 19606); assay: CO-ADD antibacterial assay, growth inhibition (OD600); format: cell-based, Acinetobacter baumannii; conditions: up to 32 μg/mL; for MIC A. baumannii: predicted or measured MIC, ≥75% growth inhibition
Description: (§1) Dry compounds ranging from 1–2 mg were weighed into properly labeled Eppendorf tubes and sealed with parafilm. The compounds were used as received by the CO-ADD. For the screenings, most compounds were dissolved to a stock concentration of 10 mg/mL in DMSO. K2[Ti(Citrate)3], Na3Citrate, and K2[TiO(Oxalate)2] were dissolved in warm water. […] Samples were diluted in water to a final testing concentration of 32 µg/mL while keeping the final co-solvent concentration to a maximum of 0.5%. Where applicable, compounds were serially diluted 1:2 fold eight times. Each sample concentration was prepared in 384-well plates, non-binding surface plate (NBS; Corning 3640) for each bacterial/fungal strain, tissue-culture treated (TC-treated; Corning 3712/3764), black for mammalian cell types and polypropylene 384-well (PP; Corning 3657) for hemolysis assays, all in duplicate (n = 2), and keeping the final DMSO concentration to a maximum of 0.5%. All sample preparation was conducted using liquid handling robots.
(§2) For the bacterial assays, four Gram-negative bacteria (E. coli (ATCC 25922, Manassas, VA, USA); K. pneumoniae (ATCC 700603), A. baumannii; (ATCC 19606), and P. aeruginosa (ATCC 27853) and the Gram-positive bacteria (S. aureus MRSA (ATCC 43300) were used. Each strain was cultured in cation-adjusted Mueller Hinton broth (CAMHB; Bacto Laboratories 212322, Mount Pritchard, Australia) at 37 °C overnight. A sample of each culture was then diluted 40-fold in fresh CAMHB and incubated at 37 °C for 1.5–3 h. The resultant mid-log phase cultures were diluted with CAMHB (CFU/mL measured by OD600), then added to each well of the compound-containing plates (384-well non-binding surface (NBS) plates; Corning CLS3640, Millipore Sigma, Burlington, MA, USA), giving a cell density of 5 × 10^5 CFU/mL and a total volume of 50 µL. Plates were covered and incubated at 37 °C for 18 h without shaking. Inhibition of bacterial growth was determined by measuring absorbance at 600 nm (OD600) with a Tecan M1000 Pro monochromator plate reader, using media-only as negative control and bacteria without inhibitors as a positive control. […] Colistin sulfate (Sigma C4461) and vancomycin HCl (Sigma 861987) were used as internal controls on each plate for Gram-negative and Gram-positive bacteria, respectively.

MRC-5 cells [2] = conditions: cited from earlier work
[3] = test system: P. aeruginosa (ATCC 27853); assay: CO-ADD antibacterial assay, growth inhibition (OD600); format: cell-based, Pseudomonas aeruginosa; conditions: up to 32 μg/mL; for MIC P. aeruginosa: predicted or measured MIC, ≥75% growth inhibition
Description: as §1, §2

E. coli (ATCC 25922) = assay: as above; format: cell-based, Escherichia coli; conditions: up to 32 μg/mL; for MIC E. coli: predicted or measured MIC, ≥75% growth inhibition
Description: as §1, §2

[4] = test system: C. neoformans (ATCC 208821); assay: CO-ADD antifungal assay, growth inhibition (resazurin, OD600-570); format: cell-based, Cryptococcus neoformans; conditions: up to 32 μg/mL; for MIC C. neoformans: predicted or measured MIC, ≥75% growth inhibition, 36 h
Description: (§3) The compounds were used as received by the CO-ADD. For the screenings, most compounds were dissolved to a stock concentration of 10 mg/mL in DMSO. K2[Ti(Citrate)3], Na3Citrate, and K2[TiO(Oxalate)2] were dissolved in warm water. [Cu(Deferasirox)(H2O)]2 was dissolved in pyridine after its solubility was determined to be excellent in pyridine due to coordination of the solvent to the metal producing [Cu(Deferasirox)(pyridine)]2 in situ. […] Each sample concentration was prepared in 384-well plates, non-binding surface plate (NBS; Corning 3640) for each bacterial/fungal strain, tissue-culture treated (TC-treated; Corning 3712/3764), black for mammalian cell types and polypropylene 384-well (PP; […] All sample preparation was conducted using liquid handling robots. For the fungal assays, the fungi (C. albicans (ATCC 90028) and C. neoformans) (ATCC 208821) were used. Both fungi (yeast) strains were cultured for 3 days on Yeast Extract-Peptone Dextrose (YPD; Becton Dickinson 242720, Thermo Fisher Scientific, Waltham, MA, USA) agar at 30 °C. A yeast suspension of 1 × 10^6 to 5 × 10^6 CFU/mL (as determined by OD530) was prepared from five colonies from the agar plates, subsequently diluted with Yeast Nitrogen Base media (YNB; Becton Dickinson 233520, Thermo Fisher Scientific, Waltham, MA, USA), and added to each well of the compound-containing plates (384-well plates, NBS; Corning CLS3640) giving a final cell density of 2.5 × 10^3 CFU/mL and a total volume of 50 μL. Plates were covered and incubated at 35 °C for 36 h without shaking. […] Sigma R7017) and incubation at 35 °C for 2 h, using media-only as a negative control and fungi without inhibitors as a positive control. […] Fluconazole (Sigma F8929) was used as an internal control on each plate for both strains.

[5] = test system: K. pneumoniae (ATCC 700603); assay: CO-ADD antibacterial assay, growth inhibition (OD600); format: cell-based, Klebsiella pneumoniae; conditions: up to 32 μg/mL; for MIC K. pneumoniae: predicted or measured MIC, ≥75% growth inhibition
Description: as §1, §2

[6] = test system: HEK293 ATCC CRL-1573 human embryonic kidney cells; assay: CO-ADD cytotoxicity assay (resazurin); format: cell-based; conditions: all concentrations examined (0.25-32 μg/mL), 20 h; CC50 could not be measured
Description: The compounds were used as received by the CO-ADD. For the screenings, most compounds were dissolved to a stock concentration of 10 mg/mL in DMSO. K2[Ti(Citrate)3], Na3Citrate, and K2[TiO(Oxalate)2] were dissolved in warm water. [Cu(Deferasirox)(H2O)]2 was dissolved in pyridine after its solubility was determined to be excellent in pyridine due to coordination of the solvent to the metal producing [Cu(Deferasirox)(pyridine)]2 in situ. […] Each sample concentration was prepared in 384-well plates, non-binding surface plate (NBS; Corning 3640) for each bacterial/fungal strain, tissue-culture treated (TC-treated; Corning 3712/3764), black for mammalian cell types and polypropylene 384-well (PP; […] All sample preparation was conducted using liquid handling robots. HEK293 ATCC CRL-1573 human embryonic kidney cells were counted manually in a Neubauer hemocytometer and added to compound-containing plates (384-well plates, tissue culture-treated (TC); […] Life Technologies 11995-073) with 10% FBS (GE SH30084.03).

[7] = test system: S. aureus MRSA (ATCC 43300); assay: CO-ADD antibacterial assay, growth inhibition (OD600); format: cell-based, Staphylococcus aureus; conditions: for MIC S. aureus (MRSA): predicted or measured MIC, lowest concentration with ≥75% growth inhibition, 0.25-32 μg/mL, 18 h; for Dmax S. aureus (MRSA), maximum % inhibition: up to 32 μg/mL
Description: as §1, §2

[8] = cited from earlier work
C. albicans (ATCC 90028) = assay: CO-ADD antifungal assay, growth inhibition (OD630); format: cell-based, Candida albicans; conditions: up to 32 μg/mL; for MIC C. albicans: predicted or measured MIC, ≥75% growth inhibition, 36 h
Description: as §3

MRC-5 cells [9] = assay: MRC-5 cell viability, dose-response treatment, MTT assay; format: cell-based, human; conditions: pH 7.4
Description: A thawed stock of MRC-5 cells was washed with 1X PBS and resuspended in phenol red DMEM media (supplemented with 10% FBS and 1% of penicillin-streptomycin) and then seeded in a 100 mm × 20 mm (complete, O.D. x H) petri dish and grown in a 5% (v/v) CO2 humidified atmosphere at 37 °C. At least three passages were performed to ensure the integrity of the cells. After this point, cells were collected, thoroughly washed with 1X PBS, and then resuspended in phenol red-free DMEM (supplemented with 10% FBS, 1% Streptomycin/Penicillin, and 2.4 mM L-glutamine) at a 2.0 × 10^5 cells/mL concentration. Approximately 100 µL of the cell solution was seeded into wells of several 96-well plates to begin the MTT assay, which was performed in the 5% (v/v) CO2 humidified atmosphere at 37 °C. At least one lane of wells in each plate was supplied media without cells as a control. […] Most of the compounds were dissolved in 1X PBS buffer at pH 7.4. […] Titanocene dichloride was prepared as a fresh stock solution in DMSO and then diluted in 0.1 M NaCl (aq) instead of 1X PBS (to minimize hydrolysis induced precipitation) to the desired concentration while maintaining a constant 1% (v/v) DMSO background (0.5% DMSO after mixing with the well media). A control of cells treated with media containing 1% (v/v) DMSO was included in the study. The titanocene solutions were used within an hour of preparation in the final cell solution. […] At 3 h before a total of 72 h of incubation with the compounds, the cells were treated with 25 µL of 9 mg/mL MTT prepared in 1X PBS and sterile-filtered. Upon completion of the three hours, 50 µL of 10% (w/v) SDS (prepared in 0.1 M Tris buffer at pH 11) was added to solubilize the purple formazan product crystals and left overnight in the incubator. Control wells in the plates consisted of: (1) Untreated cells + MTT as the measure of 100% viable cell growth in the media and (2) Media with no cells + MTT as the measure of zero cells in the media. Two sets of compounds could be tested per plate. The plates were read at the wavelength of 570 nm (absorbance of the formazan product at pH 10.0) and 800 nm (background control) using a Tecan plate reader. The absorbance of all wells was compared to the absorbance of the untreated cells with the MTT set as the 100% viable cell standard and the absorbance of the zero cell control set as the 0% viable cell standard. […] Nonlinear regression in Origin 8.5 was utilized to fit the growth curves using the pharmacology dose–response equation to determine the half-maximal inhibitory concentration (IC50) and the corresponding standard deviation. All samples were tested six times.

[10] = Aqueous solution stability, ligand exchange lability and solubility; conditions: water / aqueous buffer
[11] = test system: total intestinal bacterial count; set-up: method as in PMID 11762532; conditions: white mice, supplied in bread; cited from earlier work
[12] = test system: hemolytic and nonhemolytic S. aureus cultures; set-up: method as in doi:10.2298/abs141203061g; conditions: cited from earlier work

| SMILES | MIC A. baumannii [1] [µg/mL] | Dmax A. baumannii, maximum % inhibition [1] [%] | MIC P. aeruginosa [3] [µg/mL] | Dmax P. aeruginosa, maximum % inhibition [3] [%] | MIC E. coli (E. coli (ATCC 25922)) [µg/mL] | Dmax E. coli, maximum % inhibition (E. coli (ATCC 25922)) [%] | MIC C. neoformans [4] [µg/mL] | Dmax C. neoformans, maximum % inhibition [4] [%] | MIC K. pneumoniae [5] [µg/mL] | Dmax K. pneumoniae, maximum % inhibition [5] [%] | MIC S. aureus (MRSA) [7] [µg/mL] | Dmax S. aureus (MRSA), maximum % inhibition [7] [%] | MIC C. albicans (C. albicans (ATCC 90028)) [µg/mL] | Dmax C. albicans, maximum % inhibition (C. albicans (ATCC 90028)) [%] | other results |
| --- | --- | --- | --- | --- | --- | --- | --- | --- | --- | --- | --- | --- | --- | --- | --- |
| O=C1CN2CCN3CC(=O)[O][Ti]([O]1)([O]c1ccccc1C2)[O]c1ccccc1C3 [Compound 11, Ti(HBED)] | >32 | 68.73 | >32 | 72.48 | >32 | 48.02 | >32 | −18.86 | >32 | 56.3 | >32 | 61.46 | >32 | 10.43 | IC50 ± SD (MRC-5 cells [2]): 18.5 ± 1.9 µg/mL; IC50 (MRC-5 cells [2]; read-out: IC50 ± SD): 42 ± 4.4 µM; antiproliferative effect against HEK293 (in words) [6]: inactive; solution stability (in words) ([8]; pH 4): highly stable in solution |
| O=C1[O][Ti-2]23([O]C(=O)c4ccccc4[O]2)([O]C(=O)c2ccccc2[O]3)[O]c2ccccc21.[Na+].[Na+] [Compound 12, Na2[Ti(Salicylate)3]] | >32 | 9.4 | >32 | 9.57 | >32 | 2.6 | >32 | −5.2 | >32 | 12.46 | >32 | 3.66 | >32 | 49.3 | IC50 ± SD (µg/mL), relative IC50 (MRC-5 cells [9]): 5.14 ± 0.92 µg/mL; IC50 (MRC-5 cells [9]; read-out: IC50 ± SD (µM), relative IC50): 8.6 ± 1.54 µM; solubility (in words) [10]: limited solubility in water |
| O=C(O)C(=O)O.[O]=[Ti] [titanyl oxalate] | – | – | – | – | – | – | – | – | – | – | – | – | – | – | decrease in the total intestinal bacterial count [11]: 50% |
| O=C([O-])CC1(CC(=O)[O-])[O][Ti-2]23([O]C1=O)([O]C(=O)C(CC(=O)[O-])(CC(=O)[O-])[O]2)[O]C(=O)C(CC(=O)[O-])(CC(=O)[O-])[O]3 [Ti(citrate)3^8−] | – | – | – | – | – | – | – | – | – | – | – | – | – | – | biofilm formation (in words) ([12]; all concentrations tested (0.5 to 50 mM)): significantly activated biofilm formation; concentration with significant inhibition of growth rate ([12]; only the early phase of the bacterial growth cycle): 50 mM; ligand exchange lability (in words) [8]: ligand exchange labile |
